Experimental data reported in patent publication US12721836B2, “Alpha-methyl-L-tryptophan as an orally active drug for treating or preventing metabolic conditions” (Texas Tech University System, priority 2021, dated 2026).
“Also recorded” adds a separate entry of the source. Values belong to the compound of their own block, whether it stands above or below them.

What was measured:
[1] = Body weight in wild type male mice on normal or high-fat diet; assay type: in vivo
Text: (§1) C57B16 mice and oblob (leptin-deficient) mice were from Jackson Laboratories (Bar Harbor, ME). Slc6a14-null mice (Slc6a14^y/− males and Slc6a14^−/− females) on C57BU/6 background were generated in Applicant's lab and have been used to assess the role of this transporter in breast cancer and colon cancer. Mice had free access to water and diet ad libitum. Age- and gender-matched mice were used in control groups (no treatment). Mice were fed a normal diet (ND) (50 IF/6F 5V5R, Labdiet, St. Louis, MO) or a high-fat diet (HFD; 55% calorie from fat) (TD93075; Teklad diets, Madison, WI). The protocol was approved by the Institutional Animal Care and Use Committee of the Texas Tech University Health Sciences Center, Lubbock, TX, USA (IACUC approval number: 15002 for breeding protocol and 18005 for experimental protocol).
Administration of α-methyltryptophan to wild type mice on a high-fat diet would make the mice gain more weight as we found in Slc6a14-null male mice. The results turned out to be quite the opposite. When exposed to the drug for 1 week (2 mg/ml in drinking water; DL-enantiomeric mixture, α-MT), untreated wild type male mice on a high-fat diet gained weight whereas mice exposed to the drug lost weight (FIG. 1B). Since the deletion of Slc6a14 increased the weight gain whereas administration of α-MT to wild type mice decreased the weight gain, the effect of the drug on the body weight has little to do with its ability to block the transporter.
Next, Applicant examined the effect of α-MLT on the body weight in WT C57BL/6 male mice on a normal diet or a high-fat diet (55% calories from fat). The drug was given in drinking water (1 mg/ml). Both with the normal diet and the high-fat diet, mice gained weight when not treated with α-MLT (FIGS. 2A-B). […] This weight-reducing effect was evident with both diets.
(§2) When the drug was withdrawn, mice began to gain weight (FIG. 2B). At 4-weeks of drug exposure, circulating levels of glucose and leptin were measured. Blood glucose was higher in control (i.e., untreated) mice on the high-fat diet than in those on the normal diet (FIGS. 2C-2D). The same was true with leptin levels, which correspond to fat content (FIGS. 2C-2D).

[2] = Body weight in Slc6a14-null male mice on high-fat diet (D- vs L-isomer); assay type: in vivo; settings: Slc6a14-null male mice on HFD; 1 mg/ml in drinking water, one week
Text: as §1
Next, Applicant aimed to determine which isomer in the enantiomeric mixture of α-methyltryptophan elicited a weight-reducing effect. For this, Applicant used the Slc6a14-null male mice on a high-fat diet as a model of obesity. Applicant selected this mouse model of obesity for initial experiments because the weight-reducing effect of α-MT is independent of what the drug does to the transport function of Slc6a14.
Applicant administered the D- and L-isomers separately to these mice on a high-fat diet at a dose of 1 mg/ml in drinking water for one week. […]

[3] = Circulating glucose and leptin in wild type male mice; assay type: in vivo; settings: WT male mice, ND or HFD (independent of diet); 4 weeks, 1 mg/ml in drinking water; 4-h fasting
Protocol: Animals were fasted for 4 h and blood was collected as described above. Blood samples were centrifuged at 1500×g for 20 min and the serum samples were collected and kept at −80° C. until analyzed. Leptin was measured using the mouse/rat Quantikine ELISA kit (MOB00B, R & D Systems, MN).
as §2
(§3) Applicant then performed glucose-tolerance test in control and α-MLT-treated (2-week treatment; 1 mg/ml in drinking water) mice which were fed the high-fat diet for 12 weeks. […] At the end of the experiment, mice were killed, and liver and abdominal fat pad were excised and weighed. Treatment with α-MLT reduced the weight of the liver and the abdominal fat (FIGS. 3C-D).

[4] = Intraperitoneal glucose tolerance test in wild type mice on high-fat diet; assay type: in vivo; settings: WT mice fed HFD 12 weeks; 2-week treatment, 1 mg/ml in drinking water
Protocol: (§4) Intraperitoneal GTT was done in mice fasted for 4 h. Blood glucose was determined using the TRUE track blood glucose monitor (Trividia Health Inc, Fort Lauderdale, FL) at 0, 15, 30, 60, 90 and 120 min after i.p. injection of glucose (2 g/kg body weight).
as §3

[5] = Liver and abdominal fat pad weight in wild type mice on high-fat diet; assay type: in vivo; settings: WT male mice on HFD; 1 mg/ml in drinking water
Protocol: as §3

[6] = Hepatic steatosis (Oil-red-O staining) in wild type mice on high-fat diet; assay type: in vivo; settings: WT mice on HFD 14 weeks; treatment during last two weeks
Protocol: Liver tissue was excised and weighed immediately, snap-frozen in liquid nitrogen, and stored at −80° C. For Oil-red-O (ORO) staining, tissues were OCT embedded, frozen at −20° C., and cut, followed by staining. Slides made from formalin-fixed, paraffin-embedded liver blocks were stained with hematoxylin and eosin (H & E).
Wild type mice developed fatty liver when fed a high-fat diet for 14 weeks as evident from Oil-red-O staining of the liver sections for neutral lipids (FIG. 3E). […] In this experiment, mice were fed the high-fat diet for 12-weeks, after which the mice were divided into two groups, one with no α-MLT exposure and the other with α-MLT administration. The drug treatment was continued for two additional weeks, and all through the experiment, both groups were continuously fed the same high-fat diet.

[7] = Body weight and other parameters in wild type female mice; assay type: in vivo; settings: 1 mg/ml in drinking water, 2 weeks
Protocol: The experiments described above were done with male mice. To see if α-MLT elicits a similar weight-loss effect in female mice, wild type female mice were exposed to α-MLT (1 mg/ml in drinking water) at 3 months of age. The untreated mice gained weight and α-MLT-exposed mice lost weight (FIG. 4A). At end of 2 weeks treatment, mice were killed and mammary fat pad and liver were excised and weighed. The weights of both tissues decreased in the treated mice (FIGS. 4B-C).

[8] = Body weight, food intake, glucose and glucose tolerance in oblob mice on normal diet; assay type: in vivo
Protocol: as §4
oblob mice are deficient in leptin and therefore obese even on a normal diet. […] Applicant used 12-week-old male oblob mice to evaluate the weight-reducing effect of α-MLT (1 mg/ml in drinking water). There was a gradual weight gain on a normal diet in control mice without the drug (FIG. 5A). In contrast, mice exposed to α-MLT lost weight. At the end of 3-week drug exposure, the reversibility of α-MLT effect was evaluated by withdrawing the drug. […] At the end of the three-week treatment with α-MLT, mice were killed and the weights of the liver and abdominal fat pad were determined.
Applicant also monitored food intake, blood glucose, and glucose tolerance in control mice and α-MLT-treated mice.

[9] = Serum metabolic panel (lipid profile, kidney and liver function) in wild type mice on high-fat diet; assay type: in vivo; settings: WT mice on HFD, 1 mg/ml in drinking water, 4 weeks
Protocol: At the end of the experiment, mice were fasted for 4 h, and blood was collected via orbital sinus using local anesthesia proparacaine. Serum was prepared by centrifugation of the clotted blood, and used for metabolic panel. This was done at our Laboratory Animal Resources Center.
Applicant evaluated the serum profile for metabolites and enzymes to assess the impact of α-MLT (4 weeks treatment; 1 mg/ml in drinking water) in normal mice which were on the high-fat diet for three months prior to initiation of the drug treatment. These tests were designed to assess the function of the kidneys and liver.

[10] = rats; orally 150 mg/kg per day; cited from earlier work
[11] = oblob male mice on normal diet, 1 mg/ml in drinking water, three weeks
[12] = oblob mice on normal diet, three-week treatment

Compound: CC(N)(Cc1c[nH]c2ccccc12)C(=O)O (racemic) [α-MT, α-methyl-DL-tryptophan]
body weight gain/loss ([1]; wild type male mice on HFD, 2 mg/ml in drinking water, 1 week): lost weight

Albumin ([9]; mean ± S.E.M, N=5): 1.90 ± 0.04 g/dL
BUN ([9]; mean ± S.E.M, N=5): 34.2 ± 2.6 mg/dL
Creatinine ([9]; mean ± S.E.M, N=5): 0.30 ± 0.04 mg/dL
Globulin ([9]; mean ± S.E.M, N=5): 2.35 ± 0.09 g/dL
Total bilirubin ([9]; mean ± S.E.M, N=5): 0.6 ± 0.1 mg/dL
Total protein ([9]; mean ± S.E.M, N=5): 4.25 ± 0.06 g/dL
Compound: C[C@](N)(Cc1c[nH]c2ccccc12)C(=O)O [α-MLT, α-methyl-L-tryptophan]
onset of weight-reducing effect ([1]; 1 mg/ml in drinking water): within a day
body weight ([1]; WT C57BL/6 male mice on normal diet or high-fat diet (both diets), 1 mg/ml in drinking water): decrease in body weight
reversibility of effect on body weight ([1]; upon withdrawal of the drug): reversible
weight-reducing effect (body weight) [2]: active as a weight-reducing agent
circulating level of glucose [3]: significant decrease
circulating level of leptin [3]: significant decrease
glucose tolerance (i.p. GTT) [4]: better glucose tolerance
weight of the abdominal fat [5]: reduced
weight of the liver [5]: reduced
hepatic steatosis (Oil-red-O neutral lipids) [6]: almost completely prevented
blood glucose level [7]: decreased
body weight [7]: lost weight
liver weight [7]: decreased
mammary fat pad weight [7]: decreased
serum leptin level [7]: decreased
body weight ([8]; 12-week-old male oblob mice on normal diet, 1 mg/ml in drinking water, 3 weeks): lost weight; also recorded: decreased
food intake ([8]; oblob male mice on normal diet, 1 mg/ml in drinking water): decreased food intake
blood glucose [8, 11]: lower
insulin sensitivity (glucose tolerance test) [8, 11]: improved insulin sensitivity
abdominal fat [8, 12]: significantly reduced
liver weight [8, 12]: significantly reduced
reversibility of effect on body weight ([8]; oblob mice, drug withdrawn after 3-week exposure): started gaining weight
kidney function (blood urea nitrogen, creatinine) [9]: no evidence of compromise in kidney function
liver function (bilirubin, AST) [9]: no compromise in liver function
AST ([9]; mean ± S.E.M, N=5): 79.5 ± 16.3 U/I
serum Cholesterol ([9]; mean ± S.E.M, N=5): 106 ± 3 mg/dL
serum Triglycerides ([9]; mean ± S.E.M, N=5): 97 ± 17 mg/dL
adverse effects [10]: no noticeable adverse effects

Compound: C[C@@](N)(Cc1c[nH]c2ccccc12)C(=O)O [α-MDT, α-methyl-D-tryptophan, reference compound]
weight-reducing effect (body weight) [2]: negligible effect
